Data on 18 molecules can be found in US9394282B2, “Pyrazole carboxamides as Janus kinase inhibitors” (Merck Sharp & Dohme Corp., priority 2011, dated 2016).

One assay addresses JAK1 (Homo sapiens (Human), UniProt P23458). Nature of the assay: Jak biochemical HTRF assay, JAK1. To be noted: recombinant purified GST-tagged catalytic domain; HTRF format; [ATP] 31.8 μM. The text has this:
(§1) Jak Biochemical HTRF Assay Protocol
(§2) Subsequent reagent additions employed an Agilent Bravo.

The next assay addresses JAK2 (Homo sapiens (Human), UniProt O60674). The assay is described as follows: Jak biochemical HTRF assay, JAK2. To be noted: recombinant purified GST-tagged catalytic domain, HTRF format.
Excerpt: as §1, §2
Background: In TR-FRET formats the signal depends on donor and acceptor labels being close together.

Broadly, the IC50 is the concentration needed to halve the response being measured.

Some results are limits rather than exact numbers.

JAK2, sequence (O60674 849-1124): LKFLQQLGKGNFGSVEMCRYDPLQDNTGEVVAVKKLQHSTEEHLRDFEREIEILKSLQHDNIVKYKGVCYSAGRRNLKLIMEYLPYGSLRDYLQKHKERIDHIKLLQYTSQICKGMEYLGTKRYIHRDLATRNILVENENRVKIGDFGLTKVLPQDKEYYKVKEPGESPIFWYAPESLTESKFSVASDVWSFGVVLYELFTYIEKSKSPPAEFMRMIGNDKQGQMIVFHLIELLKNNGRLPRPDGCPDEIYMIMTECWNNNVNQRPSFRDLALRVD
JAK1, sequence (P23458 875-1153): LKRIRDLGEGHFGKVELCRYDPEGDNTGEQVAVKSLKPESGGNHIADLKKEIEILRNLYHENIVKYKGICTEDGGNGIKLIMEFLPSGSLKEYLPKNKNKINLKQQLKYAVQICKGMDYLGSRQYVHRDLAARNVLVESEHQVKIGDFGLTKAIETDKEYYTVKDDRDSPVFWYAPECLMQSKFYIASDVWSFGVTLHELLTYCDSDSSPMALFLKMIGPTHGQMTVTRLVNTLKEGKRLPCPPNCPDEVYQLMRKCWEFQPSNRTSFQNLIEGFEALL

In the case of `N#C[C@@H]1CN(C(=O)OC(CF)CF)CC[C@@H]1n1cc(C(N)=O)c(Nc2ccc(F)cc2)n1` (racemic) [Example 5-47, 2-fluoro-1-(fluoromethyl)ethyl (3R,4S and 3S,4R)-4-{4-carbamoyl-3-[(4-fluorophenyl)amino]-1H-pyrazol-1-yl}-3-cyanopiperidine-1-carboxylate], the IC50 on JAK1 was found to be 121 nM; at JAK2 ([ATP] 8.5 μM) it was 1340 nM.
For `N#C[C@@H]1CCN(CCC2CCOCC2)C[C@H]1n1cc(C(N)=O)c(Nc2ccc(F)cc2)n1` (racemic) [Example 6-10, 1-{(3S,4R and 3R,4S)-4-cyano-1-[2-(tetrahydro-2H-pyran-4-yl)ethyl]piperidin-3-yl}-3-[(4-fluorophenyl)amino]-1H-pyrazole-4-carboxamide], in that order: 6 nM and 74 nM.
For `CN1CCC(OC(=O)N2CC[C@@H](n3cc(C(N)=O)c(Nc4ccc(F)cc4)n3)[C@H](C#N)C2)CC1` (racemic) [Example 5-26, 1-methylpiperidin-4-yl (3R,4R and 3S,4S)-4-{4-carbamoyl-3-[(4-fluorophenyl)amino]-1H-pyrazol-1-yl}-3-cyanopiperidine-1-carboxylate], in that order: 58 nM and above 1500 nM.
For `CC(C)(C)OC(=O)N1CC[C@H](C#N)C(n2cc(C(N)=O)c(Nc3ccccc3)n2)C1` (mixture of isomers) [Example 1-3, tert-butyl(3R,4S and 3S,4R)-3-[4-(aminocarbonyl)-3-anilino-1H-pyrazol-1-yl]-4-cyanopiperidine-1-carboxylate], in that order: 5 nM and 41 nM.
As for `Cn1nccc1CN1CC[C@@H](C#N)[C@H](n2cc(C(N)=O)c(Nc3ccc(F)cc3)n2)C1` (racemic) [Example 6-13, 1-{(3S,4R and 3R,4S)-4-cyano-1-[(1-methyl-1H-pyrazol-5-yl)methyl]piperidin-3-yl}-3-[(4-fluorophenyl)amino]-1H-pyrazole-4-carboxamide], the IC50 was found to be 2 nM on JAK1 and 20 nM at JAK2 ([ATP] 8.5 μM).
In the same order, the values of `CC(OC(=O)N1CC[C@@H](C#N)C(n2cc(C(N)=O)c(Nc3ccc(F)cc3)n2)C1)C1CC1` (mixture of isomers) [Example 5-73, 1-cyclopropylethyl (3S,4R and 3R,4S)-3-{4-carbamoyl-3-[(4-fluorophenyl)amino]-1H-pyrazol-1-yl}-4-cyanopiperidine-1-carboxylate] are 6 nM and 77 nM.
In the same order, the values of `Cc1cc(CN2CC[C@@H](C#N)[C@H](n3cc(C(N)=O)c(Nc4ccc(F)cc4)n3)C2)no1` (racemic) [Example 6-14, 1-{(3S,4R and 3R,4S)-4-cyano-1-[(5-methylisoxazol-3-yl)methyl]piperidin-3-yl}-3-[(4-fluorophenyl)amino]-1H-pyrazole-4-carboxamide] are 4 nM and 42 nM.
Regarding `CC(C)(C)OC(=O)N1CC[C@H](n2cc(C(N)=O)c(Nc3ccccc3)n2)[C@H](C#N)C1` (mixture of isomers) [Example 1-1, tert-butyl(3R,4S and 3S,4R)-4-[4-(aminocarbonyl)-3-anilino-1H-pyrazol-1-yl]-3-cyanopiperidine-1-carboxylate], the results for the IC50 on JAK1 and at JAK2 ([ATP] […]) were 108 nM and 1270 nM, respectively.
With `CCOC(=O)N1CC[C@@H](C#N)C(n2cc(C(N)=O)c(Nc3ccc(F)cc3)n2)C1` (mixture of isomers) [Example 5-76, ethyl (3S,4R and 3R,4S)-3-{4-carbamoyl-3-[(4-fluorophenyl)ainino]-1H-pyrazol-1-yl}-4-cyanopiperidine-1-carboxylate], the half-inhibitory concentration (IC50) at JAK1 came to 5 nM; on JAK2 ([ATP] 8.5 μM) it was 62 nM.
For `N#C[C@@H]1CCN(Cc2ccon2)C[C@H]1n1cc(C(N)=O)c(Nc2ccc(F)cc2)n1` (racemic) [Example 6-3, 1-[(3S,4R and 3R,4S)-4-cyano-1-(isoxazol-3-ylmethyl)piperidin-3-yl]-3-[(4-fluorophenyl)amino]-1H-pyrazole-4-carboxamide], in that order: 2 nM and 13 nM.
In the same order, the values of `N#C[C@@H]1CN(C(=O)OCC(F)(F)CO)CC[C@H]1n1cc(C(N)=O)c(Nc2ccc(F)cc2)n1` (racemic) [Example 5-20, 2,2-difluoro-3-hydroxypropyl (3R,4R and 3S,4S)-4-{4-carbamoyl-3-[(4-fluorophenyl)amino]-1H-pyrazol-1-yl}-3-cyanopiperidine-1-carboxylate] are 5 nM and 106 nM.
For `N#C[C@@H]1CN(C(=O)OC2Cc3ccccc3C2)CC[C@H]1n1cc(C(N)=O)c(Nc2ccc(F)cc2)n1` (racemic) [Example 5-37, 2,3-dihydro-1H-inden-2-yl (3R,4R and 3S,4S)-4-{4-carbamoyl-3-[(4-fluorophenyl)amino]-1H-pyrazol-1-yl}-3-cyanopiperidine-1-carboxylate], in that order: 54 nM and above 1500 nM.
Take `CC(OC(=O)N1CC[C@@H](C#N)C(n2cc(C(N)=O)c(Nc3ccc(F)cc3)n2)C1)C(F)(F)F` (mixture of isomers) [Example 5-70, 2,2,2-trifluoro-1-methylethyl (3S,4R and 3R,4S)-3-{4-carbamoyl-3-[(4-fluorophenyl)amino]-1H-pyrazol-1-yl}-4-cyanopiperidine-1-carboxylate]: the IC50 turned out to be 8 nM at JAK1 and 135 nM at JAK2 ([ATP] 8.5 μM).
For `C[C@@]1(C#N)CS(=O)(=O)C[C@@H]1n1cc(C(N)=O)c(Nc2ccc(F)cc2)n1` (single isomer, unassigned) [Example 14-2, 1-((3R,4R or 3S,4S)-4-Cyano-4-methyl-1,1-dioxidotetrahydrothiophen-3-yl)-3-((4-fluorophenyl)amino)-1H-pyrazole-4-carboxamide], the IC50 on JAK1 was determined as 84 nM; at JAK2 ([ATP] […]), 292 nM.
Take `CC(OC(=O)N1CC[C@@H](n2cc(C(N)=O)c(Nc3ccc(F)cc3)n2)[C@H](C#N)C1)C1CC1` (mixture of isomers) [Example 5-35, 1-cyclopropylethyl (3R,4R and 3S,4S)-4-{4-carbamoyl-3-[(4-fluorophenyl)amino]-1H-pyrazol-1-yl}-3-cyanopiperidine-1-carboxylate]: the figures for the IC50 on JAK1 and on JAK2 ([ATP] 8.5 μM) were 19 nM and 468 nM, respectively.
Consider `N#C[C@@H]1CCN(Cc2cocn2)C[C@H]1n1cc(C(N)=O)c(Nc2ccc(F)cc2)n1` (racemic) [Example 6-4, 1-[(3S,4R and 3R,4S)-4-cyano-1-(1,3-oxazol-4-ylmethyl)piperidin-3-yl]-3-[(4-fluorophenyl)amino]-1H-pyrazole-4-carboxamide], for which the IC50 at JAK1 was found to be 2 nM; on JAK2 ([ATP] 8.5 μM), 18 nM.
In the case of `N#C[C@@H]1CCN(C(=O)OC(CF)CF)CC1n1cc(C(N)=O)c(Nc2ccc(F)cc2)n1` (mixture of isomers) [Example 5-71, 2-fluoro-1-(fluoromethyl)ethyl (3S,4R and 3R,4S)-3-{4-carbamoyl-3-[(4-fluorophenyl)amino]-1H-pyrazol-1-yl}-4-cyanopiperidine-1-carboxylate], the results for the IC50 at JAK1 and at JAK2 ([ATP] 8.5 μM) were 4 nM and 44 nM, respectively.
With `CC(C)(C)OC(=O)N1CC[C@@H](n2cc(C(N)=O)c(Nc3ccccc3)n2)[C@H](C#N)C1` (mixture of isomers) [Example 1-2, tert-butyl(3S,4S and 3R,4R)-4-[4-(aminocarbonyl)-3-anilino-1H-pyrazol-1-yl]-3-cyanopiperidine-1-carboxylate], the IC50 on JAK1 amounted to 24 nM; at JAK2 ([ATP] […]) it was 496 nM.
